Where two headings read alike, the source gives them in different places.
Key:
[1] = tested on: white blood cells (WBC); experiment: Hematological toxicity, white blood cell count in mice; type: in vivo, BALB/c female mice
Method: The drug schedule protocol was equivalent to the anticancer efficacy study. Blood samples were taken in the mice tail vein at 1, 12, 15, 17 and 22 days and transferred to Eppendorf tube containing 2 μL of EDTA for white blood cells (WBC) numbering using a MS9-5 (MS Pharmaceuticals, France).

[2] = tested on: LLC1 Lewis lung cancer cells; experiment: cells; conditions: Mus musculus
[3] = in vivo; conditions: female, BALB/c, mouse, plasma, iv, 10 mg/kg
[4] = tested on: CT26 colon cancer cells; experiment: In vitro cytotoxicity, MTT test, CT26 cells; conditions: Mus musculus
[5] = tested on: Murine carcinoma tumors CT26; experiment: Anticancer efficacy on subcutaneous CT26 tumors in mice; conditions: 10 mg/kg ETO d8, d9 and d11, d12
[6] = Plasma pharmacokinetic in mice after intravenous injection; conditions: i.v. 10 mg/kg ETO

IC50 ([2]; LLC1, 48 h, read-out: LLC1-IC 50 (48 h) (μM)): 1.66 ± 0.13 µM
IC50 ([2]; LLC1, 72 h, read-out: LLC1-IC 50 (72 h) (μM)): 1.05 ± 0.02 µM
AUC(0-t) [3]: 6300 ng·h/mL
MRT [3]: 1.89 min
half-life [3]: 4.89 min
mice weight loss throughout the investigation [5]: a decrease is observed
Maximum amount in total mice plasma (μg/mL) ± SD (n = 6) [6]: 37.62 ± 0.85 µg/mL
SMILES: COc1cc([C@@H]2c3cc4c(cc3[C@@H](O[C@@H]3O[C@@H]5CO[C@@H](C)O[C@H]5[C@H](O)[C@H]3O)[C@H]3COC(=O)[C@H]23)OCO4)cc(OC)c1O [Free Etoposide, etoposide]
White blood cell count (10^9 cells/L), Days 1 ([1]; day 1, taken as control before treatment): 8.9 ± 2.3 10^9 cells/L
White blood cell count (10^9 cells/L), Days 12 ([1]; day 12, last day of treatment, i.v. 10 mg/kg): 6.5 ± 4.4 10^9 cells/L
White blood cell count (10^9 cells/L), Days 15 ([1]; day 15, i.v. 10 mg/kg): 11.6 ± 0.9 10^9 cells/L
White blood cell count (10^9 cells/L), Days 17 ([1]; day 17, i.v. 10 mg/kg): 10.4 ± 1.3 10^9 cells/L
White blood cell count (10^9 cells/L), Days 22 ([1]; day 22, i.v. 10 mg/kg): 11.3 ± 3.4 10^9 cells/L
IC50 ([4]; CT26, 48 h, read-out: CT26-IC50 (48 h) (μM)): 11.3 ± 1.4 µM
IC50 ([4]; CT26, 48 h, read-out: IC 50 (48 h) (μg/mL)): 8.99 µg/mL
IC50 ([4]; CT26, 72 h, read-out: CT26-IC50 (72 h) (μM)): 5.6 ± 0.1 µM
IC50 ([4]; CT26, 72 h, read-out: IC 50 (72 h) (μg/mL)): 5.17 µg/mL
Time for median tumor to reach 50 mm^3 [5]: 9.5
Mean body weight change, d17 ([5]; second value of the cell, d17): +3.85 d17
Mean body weight change (day of nadir) ([5]; value at nadir): −3.40
Median Tumor Volume (mm^3 on day 12) ([5]; day 12): 69 mm^3

From patent US20210315831A1, “PREPARATION OF NANOSUSPENSION COMPRISING NANOCRYSTALS OF ACTIVE PHARMACEUTICAL INGREDIENTS WITH LITTLE OR NO STABILIZING AGENTS” (CENTRE NATIONAL DE LA RECHERCHE SCIENTIFIQUE, priority 2018, published 2021)
